Source: PMC7129073 (Clinical Microbiology and Infection, 2015)
Each block holds one compound with its values, some of them ahead of it.

Tests used:
[1] = test system: Klebsiella; assay: SMART 2003 Europe, microdilution; assay type: cell-based, Klebsiella spp.; details: 341 isolates
[2] = test system: E. coli; assay: SMART 2003 Europe, microdilution; assay type: cell-based, Escherichia coli; details: 1106 isolates
[3] = test system: inducible Enterobacteriaceae; assay: SMART 2003, intraabdominal isolates; assay type: cell-based
[4] = test system: Enterobacteriaceae; assay: SMART 2003 Europe, microdilution; assay type: cell-based; details: 1948 isolates
[5] = test system: K. pneumoniae; assay: MIC; assay type: cell-based, Klebsiella pneumoniae
[6] = test system: S. aureus; assay: E-test susceptibility; assay type: cell-based, Staphylococcus aureus
[7] = test system: Acinetobacter; assay: Disk diffusion; assay type: cell-based; details: 37 isolates selected as resistant to beta-lactams
[8] = test system: Salmonella, other 49 serotypes; assay: Disk diffusion, food isolates Spain; assay type: cell-based; details: n = 115
[9] = test system: Salmonella serotype Typhimurium; assay: Disk diffusion, food isolates Spain; assay type: cell-based; details: n = 53
[10] = test system: Salmonella serotype Enteritidis; assay: Disk diffusion, food isolates Spain; assay type: cell-based; details: n = 96
[11] = test system: S. pneumoniae; assay: Broth microdilution; assay type: cell-based, Streptococcus pneumoniae; details: 275 isolates
[12] = test system: S. pneumoniae; assay: PROTEKT Italy, NCCLS microdilution; assay type: cell-based, Streptococcus pneumoniae
[13] = test system: MSSA; assay: Agar dilution MIC; assay type: cell-based, Staphylococcus aureus; details: Staphylococcus aureus, MSSA
[14] = test system: MRSA; assay: Agar dilution MIC; assay type: cell-based, Staphylococcus aureus; details: Staphylococcus aureus, MRSA
[15] = test system: glycopeptide intermediate Staphylococcus species (GISS); assay: VITEK II, screening plate and E test, blood isolates; assay type: cell-based, coagulase-negative Staphylococci; details: 73 GISS strains
[16] = test system: viridans group streptococci (VGS); assay: MIC; assay type: cell-based; details: 107 strains
[17] = test system: PRSP; assay: Broth microdilution; assay type: cell-based, Streptococcus pneumoniae
[18] = test system: H.influenzae; assay: Broth microdilution; assay type: cell-based, Haemophilus influenzae; details: for %Sus: NCCLS
[19] = test system: ERSP; assay: Broth microdilution; assay type: cell-based, Streptococcus pneumoniae
[20] = test system: S. pneumoniae; assay: Broth microdilution; assay type: cell-based, Streptococcus pneumoniae
[21] = test system: nontyphoidal Salmonella; assay: Agar dilution, isolates from chickens 1998–2004; assay type: cell-based, Salmonella spp.
[22] = NCCLS breakpoints (Amox/Clav 2/1 mcg/mL)
[23] = PK breakpoint of 4/2 mcg/mL, Augmentin ES-600

Compound: C[C@@H](O)[C@H]1C(=O)N2C(C(=O)O)=C(S[C@@H]3CN[C@H](C(=O)Nc4cccc(C(=O)O)c4)C3)[C@H](C)[C@H]12 [ertapenem]
- per cent susceptible [1]: 99%
- per cent susceptible [2]: >99%
- % susceptible ([3]; A/P (N = 200)): 98%
- % susceptible ([3]; EU (N = 354)): 98%
- % susceptible ([3]; LA (N=113)): 91%
- % susceptible ([3]; NA (N = 163)): 94%
- per cent susceptible [4]: 99%
- MIC ([5]; Klebsiella pneumoniae): > 16 µg/mL

Compound: CC(=O)O[C@H]1C[C@@]2(C)[C@@H](C[C@@H](O)[C@H]3[C@@]4(C)CC[C@@H](O)[C@@H](C)[C@@H]4CC[C@@]32C)/C1=C(\CCC=C(C)C)C(=O)O [fusidic acid]
- Susceptibility ([6]; ICU, SRGA breakpoints, tigecycline tentative S ≤2 μg/ml): 91%
- Susceptibility ([6]; non-ICU): 93%

Compound: CCn1cc(C(=O)O)c(=O)c2cc(F)c(N3CCNC(C)C3)c(F)c21 (stereo not drawn) [lomefloxacin]
- resistant isolates [7]: 100.0%

Compound: CC1(C)S[C@@H]2[C@H](NC(=O)[C@H](NC(=O)N3CCN(S(C)(=O)=O)C3=O)c3ccccc3)C(=O)N2[C@H]1C(=O)O [mezlocillin]
- resistant isolates [7]: 100.0%

Compound: CO[C@@]1(NC(=O)C(C(=O)O)c2ccc(O)cc2)C(=O)N2C(C(=O)O)=C(CSc3nnnn3C)CO[C@@H]21 (stereo partly drawn) [moxalactam]
- resistant isolates [7]: 75.7%

Compound: CCN[C@@H]1C[C@H](N)[C@@H](O[C@H]2OC(CN)=CC[C@H]2N)[C@H](O)[C@H]1O[C@H]1OC[C@](C)(O)[C@H](NC)[C@H]1O [netilmicin]
- resistance rate (NCCLS M100-S13) [8]: 0%
- resistance rate (NCCLS M100-S13) [9]: 4%
- resistant isolates [7]: 5.4%
- resistance rate (NCCLS M100-S13) [10]: 1%

Compound: CO[C@H]1/C=C/O[C@@]2(C)Oc3c(C)c(O)c4c(O)c(c(/C=N/N5CCN(C)CC5)c(O)c4c3C2=O)NC(=O)/C(C)=C\C=C\[C@H](C)[C@H](O)[C@@H](C)[C@@H](O)[C@@H](C)[C@H](OC(C)=O)[C@@H]1C [rifampin]
- Susceptibility [11]: 99.3%
- susceptible ([12]; year 1: 2002): 96.7%
- susceptible ([12]; year 2: 2003): 98.9%
- MIC50 [13]: < 0.0075 µg/mL
- MIC90 [13]: < 0.0375 µg/mL
- MIC50 [14]: < 32 µg/mL
- MIC90 [14]: < 32 µg/mL
- resistance rate [15]: 32,8%

Compound: [H]/N=C(/N)N[C@H]1[C@H](O)[C@@H](O)[C@H](O[C@@H]2O[C@@H](C)[C@](O)(C=O)[C@H]2O[C@@H]2O[C@@H](CO)[C@H](O)[C@@H](O)[C@@H]2NC)[C@@H](N/C(N)=N\[H])[C@@H]1O [streptomycin]
- resistance rate (NCCLS M100-S13) [8]: 59%
- resistance rate (NCCLS M100-S13) [9]: 53%
- high-level resistance [16]: 10.3%
- resistance rate (NCCLS M100-S13) [10]: 1%

Compound: Amoxicillin / Clavulanic acid [Amox/Clav]
- MIC90 [17]: 8 µg/mL
- %Sus [17, 22]: 67.1%
- %Sus [17, 23]: 83.5%
- MIC90 [18]: 2 µg/mL
- %Sus [18]: 99.2%
- MIC90 [19]: 8 µg/mL
- %Sus [19, 22]: 81.5%
- %Sus [19, 23]: 88.6%
- MIC90 [20]: 2 µg/mL
- %Sus [20, 22]: 92.3%
- %Sus [20, 23]: 96.5%

- MIC90 [17]: > 8 µg/mL
- MIC90 [18]: > 4 µg/mL
- MIC90 [19]: 8 µg/mL
- MIC90 [20]: 8 µg/mL
Compound: Trimethoprim/sulfamethoxazole [TMP/SMX]
- %Sus [17, 22]: 13.8%
- %Sus [18]: 76.5%
- %Sus [19, 22]: 24.5%
- %Sus [20, 22]: 50.2%

Compound: colistin
- susceptibility category ([5]; BSAC): susceptible

Compound: trimethoprim/sulfadiazine [TS]
- resistance ([21]; Belgian collection (caecal samples; Belgium, France, Netherlands)): 18%
- resistance ([21]; Germany (carcass meat)): 12%
